How the values were obtained:
USP8 = molecular target: T1, USP8 (Homo sapiens, UniProt P40818); assay: USP8 activity assay, Ub-AMC substrate; assay type: biochemical; design: His tag (pFastBac-HT vector); made in house; host or cells: Sf9 or High Five insect cells, baculovirus; details: UbAMC substrate 300 nM, USP8 1.36 nM
T1 sequence (P40818 1-1118): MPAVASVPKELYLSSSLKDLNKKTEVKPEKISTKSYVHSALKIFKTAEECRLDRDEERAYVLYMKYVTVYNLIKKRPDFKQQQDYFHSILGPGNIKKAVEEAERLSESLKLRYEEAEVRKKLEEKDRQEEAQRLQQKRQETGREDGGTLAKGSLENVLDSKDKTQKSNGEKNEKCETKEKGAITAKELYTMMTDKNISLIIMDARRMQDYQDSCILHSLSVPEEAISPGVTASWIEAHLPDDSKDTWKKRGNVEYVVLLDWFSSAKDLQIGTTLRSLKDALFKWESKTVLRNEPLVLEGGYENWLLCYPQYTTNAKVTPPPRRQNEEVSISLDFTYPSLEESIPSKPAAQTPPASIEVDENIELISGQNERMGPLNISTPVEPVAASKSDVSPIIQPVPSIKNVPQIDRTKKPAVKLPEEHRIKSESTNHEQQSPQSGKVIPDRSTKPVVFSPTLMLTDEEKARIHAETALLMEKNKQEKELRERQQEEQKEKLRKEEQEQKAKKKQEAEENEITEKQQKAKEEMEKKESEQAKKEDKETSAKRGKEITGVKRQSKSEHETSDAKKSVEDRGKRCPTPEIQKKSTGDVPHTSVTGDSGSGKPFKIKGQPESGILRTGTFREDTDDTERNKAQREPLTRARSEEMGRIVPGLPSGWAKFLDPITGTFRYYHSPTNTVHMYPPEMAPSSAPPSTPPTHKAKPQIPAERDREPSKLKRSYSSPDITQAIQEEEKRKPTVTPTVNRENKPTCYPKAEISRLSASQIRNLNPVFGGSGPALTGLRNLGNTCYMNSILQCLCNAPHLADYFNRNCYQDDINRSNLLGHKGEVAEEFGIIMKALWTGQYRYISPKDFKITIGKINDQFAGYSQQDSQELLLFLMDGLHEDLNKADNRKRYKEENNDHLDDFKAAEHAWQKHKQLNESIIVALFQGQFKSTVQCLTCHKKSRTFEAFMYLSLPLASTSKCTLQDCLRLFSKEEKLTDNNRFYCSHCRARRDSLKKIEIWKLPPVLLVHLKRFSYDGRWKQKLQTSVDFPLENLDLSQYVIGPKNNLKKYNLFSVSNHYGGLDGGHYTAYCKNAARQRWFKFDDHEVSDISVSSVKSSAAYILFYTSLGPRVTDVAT
Procedure: USP8 was diluted in USP buffer (50 mM Tris HCl; 0.5 mM EDTA; 5 mM DTT; 0.01% Triton X-100; Bovine Serum Albumin 0.05 mg·ml^−1 pH8.8). Compounds stocks (100 mM) were stored at −20° C. in DMSO.
Reactions were performed as duplicates in Black 384 well plates (small volume microplates; Greiner; 10 μl final reaction volume). The substrate concentration for USP8 was 300 nM Ub-AMC (Boston Biochem). […] The concentrations were determined in order to perform specificity assays under initial velocities at fixed substrate concentration. Compounds were pre-incubated with enzymes for 30 minutes at 25° C. Reactions were initiated by addition of substrate to the plates containing the enzymes (+/− compounds) diluted in assay buffer. Reactions were incubated for 60 minutes at 37° C. Reactions were stopped by adding acetic acid (100 mM final). Readings were performed on a Pherastar Fluorescent Reader (BMG). λ Emission 380 nm: λ Excitation=460 nm.

USP5 = molecular target: T2, USP5 (Homo sapiens, UniProt P45974); assay: USP5 activity assay, Ub-AMC substrate; assay type: biochemical; details: UbAMC substrate 300 nM, USP5 300 pM
T2 sequence (P45974 1-858): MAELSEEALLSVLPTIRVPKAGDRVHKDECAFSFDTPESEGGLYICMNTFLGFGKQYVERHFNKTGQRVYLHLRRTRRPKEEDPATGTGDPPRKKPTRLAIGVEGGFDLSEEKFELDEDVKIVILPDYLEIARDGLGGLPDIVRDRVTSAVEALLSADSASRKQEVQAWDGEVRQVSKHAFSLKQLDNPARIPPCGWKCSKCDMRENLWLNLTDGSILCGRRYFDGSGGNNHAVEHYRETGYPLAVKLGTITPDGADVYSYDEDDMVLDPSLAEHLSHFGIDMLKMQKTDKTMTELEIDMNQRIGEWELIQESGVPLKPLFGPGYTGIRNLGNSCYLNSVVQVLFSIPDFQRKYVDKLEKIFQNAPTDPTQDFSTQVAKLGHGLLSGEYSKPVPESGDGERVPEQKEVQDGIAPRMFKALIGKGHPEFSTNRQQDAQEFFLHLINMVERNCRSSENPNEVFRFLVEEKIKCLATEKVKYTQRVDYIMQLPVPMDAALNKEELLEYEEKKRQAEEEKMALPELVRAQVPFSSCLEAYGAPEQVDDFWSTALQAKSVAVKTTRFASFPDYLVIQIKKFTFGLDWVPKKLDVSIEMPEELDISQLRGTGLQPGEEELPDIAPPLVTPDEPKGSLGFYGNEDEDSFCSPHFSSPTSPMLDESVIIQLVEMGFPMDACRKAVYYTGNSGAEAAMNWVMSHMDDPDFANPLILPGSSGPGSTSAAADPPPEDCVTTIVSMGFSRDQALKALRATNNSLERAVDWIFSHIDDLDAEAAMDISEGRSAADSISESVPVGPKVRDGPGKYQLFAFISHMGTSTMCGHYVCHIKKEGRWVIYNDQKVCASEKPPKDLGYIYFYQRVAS
Procedure: USP5 was diluted in USP buffer (50 mM Tris HCl; 0.5 mM EDTA; 5 mM DTT; 0.01% Triton X-100; Bovine Serum Albumin 0.05 mg·ml^−1 pH 7.6). Compounds stocks (100 mM) were stored at −20° C. in DMSO.
Reactions were performed as duplicates in Black 384 well plates (small volume microplates; Greiner; 10 μl final reaction volume). The substrate concentration for USP5 was 300 nM Ub-AMC (Boston Biochem). The concentrations of the enzyme (USP5) in specificity assays was 300 pM. The concentrations were determined in order to perform specificity assays under initial velocities at fixed substrate concentration. Compounds were pre-incubated with enzymes for 30 minutes at 25° C. Reactions were initiated by addition of substrate to the plates containing the enzymes (+/− compounds) diluted in assay buffer. Reactions were incubated for 60 minutes at 37° C. Reactions were stopped by adding acetic acid (100 mM final). Readings were performed on a Pherastar Fluorescent Reader (BMG). λ Emission 380 nm; λ Excitation=460 nm.

| SMILES | IC50 (USP8) | IC50 (USP5) |
| --- | --- | --- |
| COc1cc2ncn(CC3(O)CCN(C(=O)C(C)C)CC3)c(=O)c2cc1OC [Example 7, 3-{[4-hydroxy-1-(2-methylpropanoyl)piperidin-4-yl]methyl}-6,7-dimethoxy-3,4-dihydroquinazolin-4-one] | > 200 µM | > 200 µM |
| CC(Cc1cccs1)C(=O)N1CCC(O)(Cn2cnc3cc(Cl)ccc3c2=O)CC1 (stereo not drawn) [Example 11, 7-chloro-3-({4-hydroxy-1-[2-methyl-3-(thiophen-2-yl)propanoyl]piperidin-4-yl}methyl)-3,4-dihydroquinazolin-4-one] | > 200 µM | > 200 µM |
| O=C(CCC1CCCC1)N1CCC(O)(Cn2cnc3cc(Cl)ccc3c2=O)CC1 [Example 4, 7-chloro-3-{[1-(3-cyclopentylpropanoyl)-4-hydroxypiperidin-4-yl]methyl}-3,4-dihydroquinazolin-4-one] | > 200 µM | > 200 µM |
| CC(Cc1ccccc1)C(=O)N1CCC(O)(Cn2cnc3ccccc3c2=O)CC1 (stereo not drawn) [Example 13, 3-{[1-(2-benzylpropanoyl)-4-hydroxypiperidin-4-yl]methyl}-3,4-dihydroquinazolin-4-one] | > 200 µM | > 200 µM |
| O=C(CCC1CCCC1)N1CCC(O)(Cn2cnc3ccccc3c2=O)CC1 [Example 3, 3-{[1-(3-cyclopentylpropanoyl)-4-hydroxypiperidin-4-yl]methyl}-3,4-dihydroquinazolin-4-one] | > 200 µM | > 200 µM |
| CCC(CC)C(=O)N1CCC(O)(Cn2cnc3cc(Cl)ccc3c2=O)CC1 [Example 9, 7-chloro-3-{[1-(2-ethylbutanoyl)-4-hydroxypiperidin-4-yl]methyl}-3,4-dihydroquinazolin-4-one] | > 200 µM | > 200 µM |
| CC(C)C(=O)N1CCC(O)(Cn2cnc3ccccc3c2=O)CC1 [Example 6, 3-{[4-hydroxy-1-(2-methylpropanoyl)piperidin-4-yl]methyl}-3,4-dihydroquinazolin-4-one] | > 200 µM | > 200 µM |

The next lines start with the values.

| IC50 (USP8) | IC50 (USP5) | SMILES |
| --- | --- | --- |
| > 200 µM | > 200 µM | O=C(CCc1cccs1)N1CCC(O)(Cn2cnc3ccccc3c2=O)CC1 [Example 12, 3-({4-hydroxy-1-[3-(thiophen-2-yl)propanoyl]piperidin-4-yl}methyl)-3,4-dihydroquinazolin-4-one] |
| > 200 µM | > 200 µM | CC(Cc1cccs1)C(=O)N1CCC(O)(Cn2cnc3ccccc3c2=O)CC1 (stereo not drawn) [Example 5, 3-({4-hydroxy-1-[2-methyl-3-(thiophen-2-yl)propanoyl]piperidin-4-yl}methyl)-3,4-dihydroquinazolin-4-one] |
| > 200 µM | > 200 µM | O=C(CCc1ccccc1)N1CCC(O)(Cn2cnc3ccccc3c2=O)CC1 [Example 1, 3-{[4-hydroxy-1-(3-phenylpropanoyl)piperidin-4-yl]methyl}-3,4-dihydroquinazolin-4-one] |
| > 200 µM | > 200 µM | COc1ccccc1CCC(=O)N1CCC(O)(Cn2cnc3ccccc3c2=O)CC1 [Example 10, 3-({4-hydroxy-1-[3-(2-methoxyphenyl)propanoyl]piperidin-4-yl}methyl)-3,4-dihydroquinazolin-4-one] |
| > 200 µM | > 200 µM | CC(Cc1ccccc1)C(=O)N1CCC(O)(Cn2cnc3cc(Cl)ccc3c2=O)CC1 (stereo not drawn) [Example 14, 3-{[1-(2-benzylpropanoyl)-4-hydroxypiperidin-4-yl]methyl}-7-chloro-3,4-dihydroquinazolin-4-one] |

From patent US9546150B2, “Substituted quinazolin-4-ones for inhibiting ubiquitin specific protease 7” (HYBRIGENICS SA, priority 2011, dated 2017)
